Results taken from article PMC8700061, “Fragment-Sized and Bidentate (Immuno)Proteasome Inhibitors Derived from Cysteine and Threonine Targeting Warheads” (Cells, 2021).
Marks after values point to notes of the source that are not given here.

Tests used:
[1] = UV-Vis-based stability assay in buffer; type: physicochemical; details: after 1 h, assay buffer pH 7.4, 37 °C, 50 µM
Protocol: The aqueous stability of all compounds was determined spectrophotometrically by following the changes in the absorption spectra of the compounds. The buffer solution (50 mM Tris-HCl, 0.5 mM EDTA, pH 7.4) was pre-incubated at 37 °C. Aliquots of the compounds studied (1 mM in DMSO) were transferred to a 96-well flat-bottom UV-transparent microplate (Corning, CLS3635, Corning Inc, Corning, NY, USA) containing the buffer solution to obtain a 50 μM solution containing 5% DMSO (final volume, 300 μL). The plate was incubated without lid at 37 °C in a plate reader (Synergy H4, BioTek Instruments, Inc., Santa Clara, CA, USA) and the absorbance spectrum (244–400 nm) was acquired in sweep mode after 0, 15, 30, 60, 120, 180, and 240 min using a discontinuous kinetic procedure in Gen5 software (BioTek Instruments, Inc., Santa Clara, CA, USA). The time required to read the entire plate was 3 min. To determine the baseline, the compound solution was replaced with pure DMSO and subtracted from each reading. Compounds with an absorbance maximum of less than 0.20 AU were not evaluated using these assays due to the high experimental error. For other compounds, the relative absorbance difference between the first time point and 60 min at the most responsive wavelength was calculated. If the relative absorbance difference for the compound in the buffer was below 0.1, between 0.1–0.2, and above 0.2, the compound was classified as stable, intermediate, and unstable, respectively.

[2] = HPLC-based stability assay in PBS; type: physicochemical; details: PBS pH 7.4
Protocol: GSH reactivity assay was performed as described by Petri et al.; 500 μM solution of compound (PBS buffer pH 7.4, 10% MeCN, 250 μL) with 200 μM solution of indoprofen as internal standard were added to 10 mM GSH solution (dissolved in PBS buffer, 250 μL) in a 1:1 ratio. The final concentration was 250 μM compound, 100 μM indoprofen, 5 mM GSH and 5% MeCN (500 μL). The final mixture was analyzed by HPLC after 0, 1, 2, 4, 8, 12, 24, 48, and 72 h. The degradation kinetics were also studied using the method described in [24], except that pure PBS buffer was used instead of GSH solution. In this experiment, the final concentration of the mixture was 250 μM fragment, 100 μM indoprofen and 5% MeCN. The area under the curve (AUC) values were determined by integrating the HPLC spectra and then corrected with the internal standard.

β5i subunit of human iCP = target: T1, β5i subunit of human iCP (Homo sapiens, UniProt P20618+P28062); experiment: Inhibition of β5i activity (RA at 10 µM, IC50, IC50 shift), Suc-LLVY-AMC; type: biochemical; details: 30 min pre-incubation, SDS activator; for IC50: read-out: IC50 (µM), β5i
T1 construct: purchased Boston Biochem, Inc., Cambridge, MA, USA
Protocol: (§1) Residual activity measurements were performed at 10 μM final concentrations in the assay buffer (0.01% SDS, 50 mM Tris-HCl, 0.5 mM EDTA, pH 7.4). Stock solutions of the compounds were prepared in DMSO. To 50 μL of each compound in buffer, 25 μL of 0.8 nM human iCP or human cCP (both from Boston Biochem, Inc., Cambridge, MA, USA) were added. After incubation at 37 °C for 30 min, the reaction was started by adding of 25 μL of 100 μM relevant fluorogenic substrate: acetyl-Nle-Pro-Nle-Asp-AMC (Ac-nLPnLD-AMC, (Bachem, Bubendorf, Switzerland)) for β1, acetyl-Pro-Ala-Leu-7-amino-4-methylcoumarin (Ac-PAL-AMC, (Boston Biochem, Inc., Cambridge, MA, USA)) for β1i, t-butyloxycarbonyl-Leu-Arg-Arg-7-amino-4-methylcoumarin (Boc-LRR-AMC, (Bachem, Bubendorf, Switzerland)) for β2 and β2i, succinyl-Leu-Leu-Val-Tyr-7-amino-4-methylcoumarin (Suc-LLVY-AMC) (Bachem, Bubendorf, Switzerland) for β5 and β5i. Reaction progress was recorded on BioTek Synergy HT microplate reader by monitoring fluorescence at 460 nm (λex = 360 nm) for 90 min at 37 °C. The initial linear ranges were used to calculate velocity and determine residual activity. In the case of evaluation of β1, βi, β2, and β2i activities, the assay buffer was modified by replacing SDS with the proteasomal activator PA28α (Boston Biochem, Inc., Cambridge, MA, USA).
Final assay mixtures contained 0.2 nM human iCP or 0.2 nM human cCP in assay buffer (0.01% SDS (or PA28α in cases of β1, β1i subunits), 50 mM Tris-HCl, 0.5 mM EDTA, pH 7.4). Inhibitors were dissolved in DMSO and added to the black 96-well plates for at least eight different concentrations (the final concentration of DMSO was not more than 1%). […] Fluorescence was monitored at 460 nm (λex = 360 nm) for 90 min at 37 °C. The progress of the reactions was recorded and the initial linear ranges were used to calculate the velocity. IC50 values were calculated using GraphPadPrism (GraphPad Software, San Diego, CA, USA) and are means from at least three independent determinations.

β5 subunit of human cCP = target: T2, β5 subunit of human cCP (Homo sapiens, UniProt P20618+P28074); experiment: Inhibition of β5 activity (RA, IC50), Suc-LLVY-AMC; type: biochemical; details: 30 min pre-incubation, SDS
T2 construct: purchased Boston Biochem, Inc., Cambridge, MA, USA
Protocol: as §1
(§2) Final assay mixtures contained 0.2 nM human iCP or 0.2 nM human cCP in assay buffer (0.01% SDS (or PA28α in cases of β1, β1i subunits), 50 mM Tris-HCl, 0.5 mM EDTA, pH 7.4). Inhibitors were dissolved in DMSO and added to the black 96-well plates for at least eight different concentrations (the final concentration of DMSO was not more than 1%). After 30 min of incubation at 37 °C, the reaction was started by adding the substrate Suc-LLVY-AMC (for β5 and β5i) or Ac-nLPnLD-AMC (for β1) or Ac-PAL-AMC (for β1i). Fluorescence was monitored at 460 nm (λex = 360 nm) for 90 min at 37 °C. The progress of the reactions was recorded and the initial linear ranges were used to calculate the velocity. IC50 values were calculated using GraphPadPrism (GraphPad Software, San Diego, CA, USA) and are means from at least three independent determinations.

β1i subunit of human iCP = target: T3, β1i subunit of human iCP (Homo sapiens, UniProt P28065+P40306); experiment: Inhibition of β1i activity (RA, IC50), Ac-PAL-AMC; type: biochemical; details: 10 µM, PA28α, Table 3; read-out: β1i residual activity at 10 µM
T3 construct: purchased Boston Biochem, Inc., Cambridge, MA, USA
Protocol: as §1, §2

β1 subunit of human cCP = target: T4, β1 subunit of human cCP (Homo sapiens, UniProt P28072+Q99436); experiment: Inhibition of β1 activity (RA, IC50), Ac-nLPnLD-AMC; type: biochemical; details: 10 µM, PA28α, Table 3
T4 construct: purchased Boston Biochem, Inc., Cambridge, MA, USA
Protocol: as §1, §2

β2i subunit of human iCP = target: T5, β2i subunit of human iCP (Homo sapiens, UniProt P40306+P49720); experiment: Residual β2i activity, Boc-LRR-AMC; type: biochemical; details: 10 µM, PA28α, Table 3
T5 construct: purchased Boston Biochem, Inc., Cambridge, MA, USA
Protocol: as §1

β2 subunit of human cCP = target: T6, β2 subunit of human cCP (Homo sapiens, UniProt P49720+Q99436); experiment: Residual β2 activity, Boc-LRR-AMC; type: biochemical; details: 10 µM, PA28α, Table 3
T6 construct: purchased Boston Biochem, Inc., Cambridge, MA, USA
Protocol: as §1

SMILES | Stability in Buffer (UV-Vis-based assay) [1] | Stability in Buffer (HPLC-based assay) [2] | further results
N#Cc1nc2c([N+](=O)[O-])cccc2o1 [Compound 16] | intermediate (between 0.1–0.2) | unstable | –
CC(C)C[C@H](NC(=O)CCCCn1c(C#N)nc2ccccc21)B1O[C@@H]2C[C@@H]3C[C@@H](C3(C)C)[C@]2(C)O1 [Compound 32] | intermediate (between 0.1–0.2) | stable | IC50 (β5i subunit of human iCP): 13 ± 2 µM; IC50 (β5 subunit of human cCP): 1.6 ± 0.8 µM
N#Cc1nc2c(NC(=O)c3ccccc3)cccc2o1 [Compound 24] | stable ^c (relative absorbance difference for the compound in the buffer was below 0.1) | – | –
CC(C)C[C@H](NC(=O)CCn1c(C#N)nc2ccc(Cl)cc21)B1O[C@@H]2C[C@@H]3C[C@@H](C3(C)C)[C@]2(C)O1 [Compound 37] | intermediate (between 0.1–0.2) | stable | IC50 (β5i subunit of human iCP): 1.6 ± 1.3 µM; β5 (RA [%]) at 10 µM (β5 subunit of human cCP; 10 µM): 14 ± 1% ^e
N#Cc1nc2ccc([N+](=O)[O-])cc2o1 [Compound 18] | unstable ^c (above 0.2) | – | –
CC(C)C[C@H](NC(=O)Cn1c(C#N)nc2ccccc21)B1O[C@@H]2C[C@@H]3C[C@@H](C3(C)C)[C@]2(C)O1 [Compound 29] | unstable ^b,c (above 0.2) | unstable ^b,c | –
N#Cc1nc2cccc(N)c2o1 [Compound 23] | stable ^c (relative absorbance difference for the compound in the buffer was below 0.1) | – | –
CC(C)C[C@H](NC(=O)Cn1c(C#N)nc2ccccc21)B(O)O [Compound 33] | unstable ^b,c (above 0.2) | unstable ^b,c | –
N#Cc1nc2ccc(NC(=O)c3ccccc3)cc2o1 [Compound 26] | unstable (above 0.2) | stable | –
N#Cc1nc2cccc([N+](=O)[O-])c2o1 [Compound 19] | stable ^c (relative absorbance difference for the compound in the buffer was below 0.1) | – | RA (%) at 10 µM, β5i (β5i subunit of human iCP; 10 µM compound): 82 ± 2%
N#Cc1nc2cccc(NC(=O)c3ccccc3)c2o1 [Compound 27] | stable ^c (relative absorbance difference for the compound in the buffer was below 0.1) | – | –
N#Cc1nc2cc(N)ccc2o1 [Compound 21] | stable ^c (relative absorbance difference for the compound in the buffer was below 0.1) | – | –
CC(C)C[C@H](NC(=O)[C@H](Cc1ccccc1)NC(=O)c1cnccn1)B(O)O [Bortezomib, reference compound] | – | – | remaining activity at 10 µM (β1i subunit of human iCP): 0%; β1 (RA [%]) (β1 subunit of human cCP): 0%; β2i (RA [%]) (β2i subunit of human iCP): 16 ± 5%; β2 (RA [%]) (β2 subunit of human cCP): 62 ± 9%
N#Cc1nc2c(N)cccc2o1 [Compound 20] | stable ^c (relative absorbance difference for the compound in the buffer was below 0.1) | – | –
N#Cc1nc2cc(NC(=O)c3ccccc3)ccc2o1 [Compound 25] | stable ^c,d (relative absorbance difference for the compound in the buffer was below 0.1) | stable ^c,d | –
N#Cc1nc2ccc(O)cc2o1 [Compound 12] | intermediate ^c (between 0.1–0.2) | – | –
